Measurements reported in patent US20030092603A1, “Identification of specific modulators of bone formation” (priority 2001, published 2003).
Peptide text beside a SMILES is read from it. * marks the point of attachment. Cbz = O=C(OCc1ccccc1)*

What was measured:
[1] = tested on: endogenous Smad1; assay: Steady-state levels of endogenous Smad1 in C2C12 cells, Western blot; type: cell-based; conditions: 24 hours, vs control
Experimental: To determine the effects of proteasome inhibitors on the steady-state levels of endogenous Smad1 protein, C2C12 cells were plated in 6-well culture plates (2×10^5 cells/well) and cultured with DMEM supplemented with 10% FCS. 24 h later, proteasome inhibitors lactacystin (10 μM), MG-132 (2.5 and 5 μM), PS-1 (25 and 50 nM) were added into C2C12 cells. The cells were cultured with the proteasome inhibitors for 24 hours and then the cell lysates were extracted. The steady-state levels of endogenous Smad1 were analyzed by Western blot using Smad1 antibody (Santa Cruz).

[2] = tested on: Smad1; assay: Smurf1-induced Smad1 degradation in C2C12 cells transfected with Smad1 and Smurf1; type: cell-based; conditions: 24 h
Experimental: Effects of proteasome inhibitors on steady-state levels of Smad1 protein were examined in C2C12 cells. C2C12 cells were plated in 6-well culture plates at density of 2×10^5 cells/well and cultured with DMEM supplemented with 10% FCS for 24 h. The cells were then transfected with Smad1 and Smurf1 expression plasmids. 24 h after transfection, the cells were treated with different proteasome inhibitors at different concentrations and incubated for additional 24 h.

[3] = tested on: Gli3; assay: Gli3 processing in 293 cells transfected with Flag-Gli3, Western blot; type: cell-based, human; conditions: for band of short form Gli3^85: FIG. 2a
Experimental: (§1) Full-length human Gli3 expression plasmid (pact-Flag-Gli3) was kindly provided by Dr. Shunsuke Ishii (Dai, P., et al., J. Biol. Chem. (1999) 274:8143-8152). The molecular weights for expressed Gli3 proteins by transfection of full-length Gli3 cDNA is about 190 kd (Gli3^190) and the processed form of Gli3 is about 85 kd (Gli3^85).
293 cells were plated in 6-well culture plates and cultured with Dulbecco's modified Eagle's medium (DMEM, Sigma). 24 hours after plating, the cells were transiently transfected with Flag-Gli3 cDNA (1 μg/well) and treated with 3-isobutyl-1-methylxanthine (IBMX, 200 μM) in the presence or absence of 1, 10 and 100 nM epoxomicin or PS-1. The steady-state protein levels of Gli3 precursor protein (Gli3^190) or processed form of Gli3 (Gli3^85) were detected by Western blot using anti-Flag antibody.

[4] = tested on: BMP-4 mRNA; assay: BMP-4 mRNA expression, MG-63 cells; type: cell-based; conditions: cultured human MG-63 osteoblastic cells
Experimental: (§2) 2T3 murine osteoblast precursor cells and MG-63 human osteoblastic cells were cultured with α minimal essential medium (αMEM) supplemented with 10% fetal calf serum (FCS).
(§3) MG-63 cells were plated in T-150 flasks at density of 2×10^6 cells per flask for RNA extraction. Total RNA was extracted from MG-63 cells using RNAzol B method (Tel-test Inc., Houston, Tex.). Enrichment of polyadenylated RNA was obtained using Stratagene oligo(dT) cellulose columns (Stratagene, San Diego, Calif.). 5 μg of poly (A^+) RNA was denatured in 2.2 M formaldehyde and 50% fornamide and run on an 1% agarose gel containing 2.2 M formaldehyde. The gels were transferred to a Nytran filter (Schleicher and Schuell, Keene, N.H.) by capillary blotting with 20× SSC (1× SSC=150 mM NaCl, 15 mM Na Citrate, pH 7.0). The RNA was then cross-linked to the filter by UV irradiation (Stratalink, Stratagene, San Diego, Calif.). Prehybridization was carried out at 56° C. in 5× SSC containing 50% formamide and 150 μg/ml of denatured salmon sperm DNA. After 1-2 h prehybridization, the DNA probes were added to the hybridization solution at a concentration of 5×10^5 cpm/ml. Hybridization was carried out for 15 h at 56° C. […] The filters were dried at room temperature, exposed at −70° C. overnight and then quantitated in cpm using an AMBIS Image Acquisition and Analysis System (AMBIS, San Diego, Calif.).

[5] = tested on: BMP-2 protein; assay: BMP-2 protein production by ELISA, MG-63 cell lysates; type: cell-based; conditions: cultured human MG-63 osteoblastic cells, 24 h
Experimental: MG-63 cells were plated in 12-well culture plates at the density of 2.5×10^5 cells/well and cultured with αMEM supplemented with 10% FCS for 24 h. The cells were treated with the proteasome inhibitors epoxomicin and PSI for 24 h. After incubation, the cell lysates were extracted with 150 μl lysis buffer (50 mM TrisHCl pH 8.0, 150 mM NaCl, 1% NP40) with protease inhibitors. The lysates were used to measure the BMP-2 protein production by ELISA.
For protein production, 96-well Dynatech white plates were coated with mouse anti-hBMP-2 monoclonal antibody (raised against rhBMP-2) at 1 μg/ml in PBS (100 μl/well) and incubated overnight at 4° C. The following procedures were performed at room temperature. The plates were washed 3 times with 300 μl of PBS-T wash buffer (PBS and 0.05% Tween) and then blocked with 300 μl 0.2% I-Block solution (0.2% I-Block in PBS-T, Applied Biosystems) for 2 h. 100 μl cell lysates were then added and incubated with coated antibody for 2 h. […] After 3 time washing with wash buffer and 3 time washing with assay buffer, the plates were incubated with 100 μl Tropix enzyme substrate (Applied Biosystems) in dark for 10 min and then read light emission with a Luminometer. rhBMP-2 (R&D) was used to generate the standard curve.

[6] = tested on: neonatal murine calvarial bones; assay: Organ culture of neonatal murine calvarial bones, bone formation; type: cell-based, ICR Swiss mice; conditions: for effect on osteoblast differentiation and bone formation after transfection of trGli3: calvariae transfected with trGli3, epoxomicin 20 nM, 3 days, histology
Experimental: Organ cultures of neonatal murine calvarial bones were used as described by Traianedes, K., et al., Endocrinology (1998) 139:3178-3184. Bones were removed from the calvaria of 4-5 day old ICR Swiss mice and cultured in BGJ medium with 0.1% BSA for 72 hours together with test compounds. Mouse noggin/FC chimera was purchased from R&D Systems, Stillwater, Minn., and added at 2 μg/ml.
Neonatal murine calvariae were transfected with either empty vector or truncated Gli3 (trGli3) using lipofectamine plus reagents for the first 24 hours and then treated with epoxomicin (20 nM) for the remaining 3 days of the assay according to Traianedes, et al., 1998 (supra).

[7] = tested on: BMP-2 mRNA; assay: BMP-2 mRNA expression, Northern blot, MG-63 cells; type: cell-based; conditions: cultured human MG-63 osteoblastic cells
Experimental: as §2, §3

[8] = tested on: Gli3 precursor protein (Gli3^190); assay: Gli3 precursor (Gli3^190) degradation in C3H10T1/2 cells, Western blot; type: cell-based, mouse; conditions: IBMX 200 μM
Experimental: as §1
C3H10T1/2 multipotent progenitor cells were cultured with RPMI […] medium. The medium was purchased from Sigma (St. Louis, Mo.) and supplemented with 10% fetal calf serum (FCS). C3H10T1/2 cells were plated in 6-well culture plates at the density of 2×10^5 cells/well and transfected with Flag-Gli3 (2 μg/well) and treated with IBMX (200 μM) in the presence or absence of 10 and 20 nM of epoxomicin. Gli3^190 protein expression was detected by Western blot using anti-Flag antibody.

[9] = tested on: murine BMP-2 promoter (−2712/+165); assay: BMP-2 promoter-luciferase assay in stably transfected 2T3 cells; type: cell-based
Experimental: as §2
The cells were plated in 96-well culture plates and cultured for 24 h. The cells were then treated with different proteasome inhibitors or other compounds for additional 24 h. The cell lysates were extracted and luciferase activities were measured by a luciferase assay kit (Promega, Madison, Wis.) using a Luminometer.

[10] = noggin 2 μg/ml, 72 hours culture

CC(C)C[C@@H](C=O)NC(=O)[C@H](CC(C)C)NC(=O)[C@H](CC(C)C)NC(=O)OCc1ccccc1 [MG-132] (Cbz-Leu-Leu-Leu-aldehyde)
increase of endogenous Smad1 protein level ([1]; 5 μM): 6.5 fold | Smurf1-induced Smad1 degradation ([2]; C2C12 cells, 5 μM): partially or completely reversed

CC(=O)N[C@@H](CSC(=O)[C@]1([C@@H](O)C(C)C)NC(=O)[C@H](C)[C@@H]1O)C(=O)O [lactacystin]
increase of endogenous Smad1 protein level ([1]; 10 μM): 3.7 fold | Smurf1-induced Smad1 degradation ([2]; C2C12 cells, 10 μM): partially or completely reversed

CC[C@H](C)[C@H](NC(=O)[C@H]([C@@H](C)CC)N(C)C(C)=O)C(=O)N[C@H](C(=O)N[C@@H](CC(C)C)C(=O)[C@@]1(C)CO1)[C@@H](C)O [epoxomicin]
band of short form Gli3^85 ([3]; 1 nM epoxomicin): substantially reduced | band of short form Gli3^85 ([3]; 10 nM epoxomicin): abolished | Gli3 processing to its processed shorter form ([3]; IBMX 200 μM): impaired | expression of BMP-4 mRNA [4]: no effect | BMP-2 protein expression [5]: increased | bone formation in calvarial cultures ([6]; 72 hours culture): bone stimulating effects | effect on osteoblast differentiation and bone formation after transfection of trGli3 [6]: impaired markedly | BMP-2 mRNA expression [7]: increased | degradation of Gli3 precursor protein (Gli3^190) [8]: prevent the degradation | potency as stimulators of BMP-2 expression compared with the statins [9]: considerably more potent | luciferase activity (BMP-2 promoter) ([9]; treated 24 h): increased | Smurf1-induced Smad1 degradation ([2]; C2C12 cells, 10, 20 and 40 nM, FIG. 5c): partially or completely reversed

aFGF: acidic fibroblast growth factor, unrelated anabolic agent
bone formation in calvarial cultures ([6]; 72 hours culture): bone formation stimulated | effect on osteoblast differentiation and bone formation after transfection of trGli3 [6]: no effect

noggin
effect of noggin on bone formation stimulated by aFGF [6, 10]: no effect | effect of noggin on bone stimulating effect of BMP-2 [6, 10]: inhibited | effect of noggin on bone stimulating effect of PS-1 [6, 10]: inhibited | effect of noggin on bone stimulating effect of epoxomicin [6, 10]: inhibited
